From US8796302B2 (priority 2004, dated 2014)

Columns and labels:
TNFα = TNFα production in neuron-glia cultures of PHOX+/+ and PHOX−/− mice; format: cell-based, mouse; details: DM 10^−14 M
Description: Neurotoxicity was assessed by DA uptake as described in Example 1. TNFα production was measured by ELISA and iROS was determined by DCFDA as in Example 5. Results are expressed as a percentage of the control culture in FIG. 7A, pg/ml in FIG. 7B, and difference from control in FIG. 7C, respectively, and are the mean±S.E.M. of five individual experiments with triplicates in each experiment. *, P<0.05 compared with LPS culture.
The rat and mouse ventral mesencephalic neuron-glia cultures were prepared as in Example 1. […] DA neurotoxicity was measured by using the [^3H] DA uptake assay as in Example 1. The data are expressed as the percent of the control cultures and are the mean±SEM. The release of TNFα was measured with a commercially available enzyme-linked immunosorbent assay kit. *P<0.05, **P<0.01, compared to control. The amount of TNFα was measured as in Example 2.

COX2 = assay: Western blot of COX2 in microglia enriched cultures; format: cell-based, rat; details: femto-molar DM, 30 min pretreatment, LPS
Description: Western blots were used to analyze possible effects of DM on iNOS and COX2 production in rat microglia enriched cultures. The cultures were prepared and treated with vehicle, OM DM, 10^−14DM, LPS alone, and LPS with different concentrations of DM. The production of iNOS (inducible nitric oxide synthenase) and COX2 (cycloxyase 2) in the culture extracts were detected by Western Blot assay. Data in FIG. 9B represent the mean±S.E.

CD-1 mouse Kupffer cells = assay: Superoxide and intracellular ROS in LPS-stimulated Kupffer cells; format: cell-based; details: LPS 10 ng/ml
Description: Kupffer cell samples were collected by anesthetizing the CD-1 mice with pentobarbital anesthesia [60 mg/kg intraperitoneally (i.p.)]. The abdomen of the animals was shaved and opened, the portal vein was cannulated and perfused with Ca^2+- and Mg^2+-free Hanks' balanced salt solution (HBSS) at 37° C. for 5 min at a flow rate of 13 ml/min. Subsequently, the liver was perfused with HBSS containing 0.05% collagenase IV (Sigma Chemical, St. Louis, Mo.) at 37° C. for 5 min. After the liver was digested, it was excised and cut into small pieces in collagenase buffer. The suspension was filtered through nylon gauze mesh, and the filtrate was centrifuged at 450×g for 10 min at 4° C. Cell pellets were resuspended in buffer, parenchymal cells were removed by centrifugation at 50×g for 3 min, and the nonparenchymal cell fraction was washed twice with buffer. Cells were centrifuged on a density cushion of 50% of Percoll (Pharmacia, Upsala, Sweden) at 1,000×g for 15 min, and the Kupffer cell fraction was collected and washed again with buffer. The viability of the cells was determined by tryptan blue exclusion at >90%. The cells were seeded onto 24-well culture plates and cultured in RPMI 1640 (GIBCO Laboratories Life Technologies, Grand Island, N.Y.) supplemented with 10% fetal bovine serum and antibiotics (100 U/ml penicillin G and 100 μg/ml streptomycin sulfate) at 37° C. with 5% CO2. Non-adherent cells were removed after 2 hours by replacing media, and cells were cultured for 24 hours before the experiments.
The production of superoxide and intracellular ROS by the Kupffer cells were measured as in Example 5.

superoxide = assay: Superoxide release (SOD-inhibitable cytochrome c reduction) after LPS; format: cell-based, rat
Description: The release of superoxide was determined by measuring the superoxide dismutase (SOD)-inhibitable reduction of cytochrome c. To measure the immediate release of superoxide from microglia-enriched or neuron-glia after stimulation, cultures grown in 96-well plates were switched to phenol red-free HBSS (50 μl/well). To each well was added 50 μl of HBSS containing vehicle or DM. The cultures were then incubated at about 37° C. for about 30 min followed by 50 μl of ferricytochrome c (100 μM) in HBSS, with and without 600 U/ml SOD, 50 μl of vehicle or LPS in HBSS. The absorbance at 550 nm was read with a SpectraMax Plus microplate spectrophotometer (Molecular Devices, Sunnyvale, Calif.).
This example tests whether or not post-treatment with DM is still neuroprotective in LPS-induced neurotoxicity. Neuron-glia co-cultures as prepared in Example 1 were first treated with LPS (20 ng/ml) for twelve hours, and then LPS was removed by removing the media from the cultures and washing twice with PBS. Different concentrations of DM (10^−5, 10^−10, and 10^−14 M) were then added to the cultures and incubation was continued for another 6 or 7 days. The DA uptake and the superoxide production were measured as in Example 1 and 5. Results are expressed as a percentage of the control cultures and are the mean±S.E.M of three to six experiments with triplicates in each experiment. ##, P<0.01 compared with control culture; *, P<0.05 compared with the LPS-treated culture.
Primary enriched-microglia cultures were prepared as in Example 1. […] The intracellular ROS concentrations and superoxide amounts were measured as in Example 5. The data are expressed as the percent of the control cultures and are the mean±SEM of three experiments performed in triplicate. *P<0.05, **P<0.01, compared to control.

[1] = tested on: dopaminergic neurons in neuron-glia co-cultures; assay: [3H]DA uptake in Aβ-treated neuron-glia cultures; format: cell-based, rat; details: micro- and femtomolar DM, 30 min pretreatment, Aβ 0.75 μM
Description: Neuron-glia co-cultures were prepared and treated with vehicle alone, Aβ 0.75 μM alone, or DM 30 min prior to treatment with Aβ0.75 μM similar to Example 1. Amyloid-β peptide (25-35 and 1-42) was obtained from American Peptide Co., Inc (Sunnyvale, Calif.). Neurotoxicity was assessed by DA uptake as in Example 1. Results are expressed as a percentage of the control cultures and are the mean±S.E.M. of three to eight individual experiments with triplicates in each experiment. ##, P<0.01 compared with the control culture; *, P<0.05 compared with Aβ-treated culture.

COc1ccc2c(c1)[C@@]13CCCC[C@H]1[C@@H](C2)N(C)CC3 [DM, d-3-methoxy-N-methylmorphinan]
LPS-induced TNFα production (TNFα; PHOX+/+ mice): significantly reduce TNFα production | LPS-induced TNFα production (TNFα; PHOX−/− mice): not seen | protein content of COX2 (COX2): failing to affect the protein content | extracellular superoxide production (CD-1 mouse Kupffer cells; DM 5 μM): attenuated | intracellular superoxide production (iROS) (CD-1 mouse Kupffer cells; DM 5 μM): attenuated | extracellular superoxide production (CD-1 mouse Kupffer cells; DM 10 μM): significantly blunted | intracellular superoxide production (iROS) (CD-1 mouse Kupffer cells; DM 10 μM): significantly blunted | LPS-induced increase in the release of superoxide (superoxide; DM 10^−5 M and 10^−14 M pretreatment): significantly decreased | LPS-induced increase in superoxide production, post-treatment (superoxide; DM 10^−5 and 10^−14 M post-treatment, 24 h after LPS): significantly inhibited LPS-induced increase in superoxide production | LPS-induced increase in the release of superoxide (superoxide; DM 10^−10 M pretreatment): no significant reduction | production of superoxide (superoxide; DM 10^−10 M, pre- or post-treatment): neither pre-treatment nor post-treatment with DM at 10^−10 M significantly affected the production of superoxide | Aβ-induced neurotoxicity (DA uptake) [1]: neuroprotective effect
